Laboratory results from ChEMBL document CHEMBL1131475, “Discovery of ritonavir, a potent inhibitor of HIV protease with high oral bioavailability and clinical efficacy” (J Med Chem, 1998).

Legend:
in vivo [1] = conditions: rat, plasma, po
[2] = Oral bioavailability in rat; format: ADME, organism-based; conditions: in vivo
in vivo [3] = conditions: rat, plasma, po; remark: listed apart in the source
in vivo [4] = conditions: rat, plasma, po, 10 mg/kg
in vivo [5] = conditions: rat, plasma, iv

Tmax (in vivo [1]) [min]	bioavailability [2] [%]	AUC (in vivo [3]) [ng·h/mL]	Cmax (in vivo [4]) [nM]	half-life (in vivo [5]) [min]	Compound
6	3.3	90	290	17.4	CC(C)c1nc(CN(C)C(=O)NC(C(=O)N[C@@H](Cc2ccccc2)[C@@H](O)C[C@H](Cc2ccccc2)NC(=O)OCc2cccnc2)C(C)C)co1 (stereo not given in full)
6	5.7	290	1050	34.2	COc1ccc(CN(C)C(=O)NC(C(=O)N[C@@H](Cc2ccccc2)C[C@H](O)[C@H](Cc2ccccc2)NC(=O)OCc2cccnc2)C(C)C)nc1 (stereo not given in full)
9	0.4	50	180	16.8	COc1cncc(CN(C)C(=O)NC(C(=O)N[C@@H](Cc2ccccc2)C[C@H](O)[C@H](Cc2ccccc2)NC(=O)OCc2cccnc2)C(C)C)c1 (stereo not given in full)
24	9.3	500	1020	64.2	CC(C)C(NC(=O)N(C)Cc1ccccn1)C(=O)N[C@@H](Cc1ccccc1)[C@@H](O)C[C@H](Cc1ccccc1)NC(=O)OCc1ccoc1 (stereo not given in full)
18	6	190	860	12.6	Cc1cnc(COC(=O)NC(C(=O)N[C@@H](Cc2ccccc2)C[C@H](O)[C@H](Cc2ccccc2)NC(=O)OCc2cccnc2)C(C)C)cn1 (stereo not given in full)
6	0.7	30	190	19.8	COc1ccc(COC(=O)NC(C(=O)N[C@@H](Cc2ccccc2)C[C@H](O)[C@H](Cc2ccccc2)NC(=O)OCc2cccnc2)C(C)C)cn1 (stereo not given in full)
17.4	32	1660	3390	40.8	Cc1cccc(CN(C)C(=O)NC(C(=O)N[C@@H](Cc2ccccc2)C[C@H](O)[C@H](Cc2ccccc2)NC(=O)OCc2cccnc2)C(C)C)n1 (stereo not given in full)
9	8.5	570	2530	39.6	CC(C)C(NC(=O)OCc1nccs1)C(=O)N[C@@H](Cc1ccccc1)C[C@H](O)[C@H](Cc1ccccc1)NC(=O)OCc1cccnc1 (stereo not given in full)
15	3	220	470	40.8	CC(C)c1nc(COC(=O)NC(C(=O)N[C@@H](Cc2ccccc2)[C@@H](O)C[C@H](Cc2ccccc2)NC(=O)OCc2cccnc2)C(C)C)cs1 (stereo not given in full)
22.2	47	4240	2040	73.8	CC(C)C(NC(=O)OCc1ccccn1)C(=O)N[C@@H](Cc1ccccc1)C[C@H](O)[C@H](Cc1ccccc1)NC(=O)OCc1cncs1 (stereo not given in full)
6	6.7	290	1220	26.4	Cc1ccc(CN(C)C(=O)NC(C(=O)N[C@@H](Cc2ccccc2)[C@@H](O)C[C@H](Cc2ccccc2)NC(=O)OCc2cccnc2)C(C)C)cn1 (stereo not given in full)
120	78	7750	2620	72	CC(C)c1nc(CN(C)C(=O)NC(C(=O)N[C@@H](Cc2ccccc2)C[C@H](O)[C@H](Cc2ccccc2)NC(=O)OCc2cncs2)C(C)C)cs1 (stereo not given in full)
130	58	21900	6460	66	CC(C)C(NC(=O)N(C)Cc1csc(C2CC2)n1)C(=O)N[C@@H](Cc1ccccc1)C[C@H](O)[C@H](Cc1ccccc1)NC(=O)OCc1cncs1 (stereo not given in full)
12	4.5	210	1030	13.8	CC(C)C(NC(=O)OCc1cnccn1)C(=O)N[C@@H](Cc1ccccc1)[C@@H](O)C[C@H](Cc1ccccc1)NC(=O)OCc1cccnc1 (stereo not given in full)
6	0.7	20	150	27.6	CC(C)c1ncc(COC(=O)NC(C(=O)N[C@@H](Cc2ccccc2)C[C@H](O)[C@H](Cc2ccccc2)NC(=O)OCc2cccnc2)C(C)C)s1 (stereo not given in full)
6	1.5	70	300	71.4	COc1cncc(COC(=O)NC(C(=O)N[C@@H](Cc2ccccc2)[C@@H](O)C[C@H](Cc2ccccc2)NC(=O)OCc2cccnc2)C(C)C)c1 (stereo not given in full)
9	22	1220	2180	73.2	CC(C)C(NC(=O)N(C)Cc1ccccn1)C(=O)N[C@@H](Cc1ccccc1)C[C@H](O)[C@H](Cc1ccccc1)NC(=O)OCc1cccnc1 (stereo not given in full)
6	5.2	290	640	40.2	CC(C)C(NC(=O)N(C)Cc1cscn1)C(=O)N[C@@H](Cc1ccccc1)C[C@H](O)[C@H](Cc1ccccc1)NC(=O)OCc1cccnc1 (stereo not given in full)
19.8	5.3	230	380	17.4	CC(C)C(NC(=O)N(C)Cc1csc(C(C)(C)C)n1)C(=O)N[C@@H](Cc1ccccc1)C[C@H](O)[C@H](Cc1ccccc1)NC(=O)OCc1cccnc1 (stereo not given in full)
6	0.5	10	160	11.4	CCc1ncc(COC(=O)NC(C(=O)N[C@@H](Cc2ccccc2)C[C@H](O)[C@H](Cc2ccccc2)NC(=O)OCc2cccnc2)C(C)C)s1 (stereo not given in full)
105	16	1700	2290	120	CC(C)c1nc(CN(C)C(=O)NC(C(=O)N[C@@H](Cc2ccccc2)[C@@H](O)C[C@H](Cc2ccccc2)NC(=O)OCc2cncs2)C(C)C)cs1 (stereo not given in full)
15	17	1050	1490	72	CCc1nc(CN(C)C(=O)NC(C(=O)N[C@@H](Cc2ccccc2)C[C@H](O)[C@H](Cc2ccccc2)NC(=O)OCc2cccnc2)C(C)C)cs1 (stereo not given in full)
12	5.7	120	350	18	Cc1ncc(COC(=O)NC(C(=O)N[C@@H](Cc2ccccc2)[C@@H](O)C[C@H](Cc2ccccc2)NC(=O)OCc2cccnc2)C(C)C)nc1C (stereo not given in full)
12	7.7	380	1200	27.6	COc1ccc(COC(=O)NC(C(=O)N[C@@H](Cc2ccccc2)[C@@H](O)C[C@H](Cc2ccccc2)NC(=O)OCc2cccnc2)C(C)C)nc1 (stereo not given in full)
30	16	1240	2290	33.6	COCc1nc(CN(C)C(=O)NC(C(=O)N[C@@H](Cc2ccccc2)[C@@H](O)C[C@H](Cc2ccccc2)NC(=O)OCc2cccnc2)C(C)C)cs1 (stereo not given in full)
15	6.4	330	1130	18	Cc1ncc(CN(C)C(=O)NC(C(=O)N[C@@H](Cc2ccccc2)C[C@H](O)[C@H](Cc2ccccc2)NC(=O)OCc2cccnc2)C(C)C)nc1C (stereo not given in full)
108	76	12000	5190	36.6	CC(NC(=O)N(Cc1csc(C(C)C)n1)C1CC1)C(=O)N[C@@H](Cc1ccccc1)C[C@H](O)[C@H](Cc1ccccc1)NC(=O)OCc1cncs1 (stereo not given in full)
